In patent publication US11234985B2, “Antiviral therapy” (VIIV HEALTHCARE COMPANY, priority 2010, dated 2022):

Test system: HIV-1 (strain IIIB)
Assay: Antiviral HIV activity in combination, tetrazolium-based (MTS) colorimetric checkerboard assay in MT-4 cells
Format: cell-based
Conditions: HIV-1 IIIB infected MT-4 cells, 5 days
Protocol: Antiviral HIV activity was measured by means of a tetrazolium-based colorimetric procedure in the human T-cell leukemia virus (HTLV-1) transformed cell line MT-4. Aliquots of test compound were diluted vertically across a deep-well master assay plate, in medium (RPMI 1640, 10% vol./vol. fetal bovine serum (FBS), and 10 μg/mL gentamicin), at concentrations that were approximately 40-fold higher than the final assay concentration. Serial dilutions were made at either 1:2 or 1:3.16 ratios. HIV inhibitors were diluted horizontally across master assay plates, also in concentrations that were approximately 40-fold higher than the final assay concentration. Small aliquots of both the vertically-diluted and the horizontally-diluted compounds were combined in daughter plates using an automated 96-well pipetting system (RapidPlate-96, Zymark Corp.). Checkerboard style dilutions were arranged so that every concentration of test compound was tested in the presence and absence of every concentration of the HIV inhibitors. Anti-HIV activity tests were performed in triplicate assays, or more, of each combination. Exponentially growing MT-4 cells were harvested and centrifuged at 1,000 rpm for 10 minutes in a Jouan centrifuge (Model CR 4 12). Cell pellets were re-suspended in fresh medium (RPMI 1640, 20% vol./vol. FBS, 20% vol./vol. IL-2, and 10 μg/mL gentamicin) to a density of 1.25×10^6 cells/mL. Cell aliquots were infected by the addition of HIV-1 (strain IIIB) diluted to give a viral multiplicity of infection (MOI) of 73 pfU per 1×10^4 cells. A similar cell aliquot was diluted with medium to provide a mock-infected control. Cell infection was allowed to proceed for 1 hour at 37° C. in a tissue culture incubator with humidified 5% CO2 atmosphere. After the 1 hour incubation the virus/cell suspension was added to each well of the plates containing pre-diluted compounds. Plates were then placed in a tissue culture incubator with humidified 5% CO2 for 5 days. At the end of the incubation period, […] of CellTiter 96 MTS reagent (Promega no. G3581) was added to each well of the incubation plate. Plates were incubated at 37° C. for 2 to 3 hours to allow for color development. O.D. was measured at […] using a microplate absorbance reader (Tecan no. 20-300).
HIV-1 strain IIIB, wild-type laboratory strain, virus titer=6.896 E4 TCID50/mL.
Although some assay formats might theoretically miss antagonism due to combination cytotoxicity, the approach described here should not miss an antagonistic effect. The readout in the MT-4 cell assay utilizes MTS, a tetrazolium-based staining reagent where changes in optical density (O.D.) of the reagent are used to estimate the total cell number remaining after treatment. Final MT-4 cell numbers may decrease due to two effects. First, an HIV-induced cytotoxicity may occur when HIV kills greater than 75% of the MT-4 cells during the 5 days following infection. Second, a compound-induced cytotoxicity may occur, where the compound either directly kills the MT-4 cells or prevents cell growth (stasis) over the 5 days in either infected or uninfected cells. In either of these situations the O.D. is low as compared with infected cells protected by anti-HIV-1 compounds or relative to untreated and uninfected control cells. Since both cytotoxic effects and antagonism of anti-HIV activity would lead to lower O.D. we should not miss an antagonistic effect due to combination cytotoxicity, but could underestimate synergistic combinations.
Within assay combination cytotoxicity was evaluated by comparing wells containing the uninfected MT-4 cells from the assay plates that contained the highest concentration of test compound or the comparator compound, with wells containing […] MT-4 cells under the corresponding highest combination concentrations. For each of these values there is one well per assay plate and thus at least 3 wells per combination assay. […]

`C[C@@H]1CCO[C@H]2Cn3cc(C(=O)NCc4ccc(F)cc4F)c(=O)c(O)c3C(=O)N12` [formula (I)] was tested, and the “interaction (deviation from dosewise additivity) of anti-HIV activity” value (in combination with abacavir) was “synergistic”, the “interaction (deviation from dosewise additivity) of anti-HIV activity” value (in combination with adefovir) was “additive” and the “interaction (deviation from dosewise additivity) of anti-HIV activity” value (in combination with amprenavir) was “synergistic”. The “interaction (deviation from dosewise additivity) of anti-HIV activity” value (in combination with efavirenz) was “synergistic”, the “interaction (deviation from dosewise additivity) of anti-HIV activity” value (in combination with enfuvirtide) was “synergistic” and the “interaction (deviation from dosewise additivity) of anti-HIV activity” value (in combination with lopinavir) was “synergistic”. The “interaction (deviation from dosewise additivity) of anti-HIV activity” value (in combination with maraviroc) was “additive”, the “interaction (deviation from dosewise additivity) of anti-HIV activity” value (in combination with nevirapine) was “synergistic” and the “interaction (deviation from dosewise additivity) of anti-HIV activity” value (in combination with raltegravir) was “additive”. The “interaction (deviation from dosewise additivity) of anti-HIV activity” value (in combination with stavudine) was “synergistic” and the “effect of the presence of ribavirin on anti-HIV activity” value (in the presence of ribavirin) was “not affected”.
